Assay type in all cases: in vivo
In test [1] the test system is Diabrotica balteata. The test is described as follows: Diabrotica balteata (Corn Root Worm). Particulars: 96 h, application rate of 200 ppm, sprayed maize sprouts, L2 larvae, 4 days after infestation, read-out: effect in at least one of the two categories (mortality or growth inhibition). The procedure:
Maize sprouts placed onto an agar layer in 24-well microtiter plates were treated with aqueous test solutions prepared from 10,000 ppm DMSO stock solutions by spraying. After drying, the plates were infested with L2 larvae (6 to 10 per well). The samples were assessed for mortality and growth inhibition in comparison to untreated samples 4 days after infestation.

Test [2] relates to Euschistus heros. Kind of test: Euschistus heros (Neotropical Brown Stink Bug). The note with it: 120 h, application rate of 200 ppm, sprayed soybean leaves, N2 nymphs, 5 days after infestation, read-out: effect in at least one of the two categories (mortality or growth inhibition). The protocol:
Soybean leaves on agar in 24-well microtiter plates were sprayed with aqueous test solutions prepared from 10,000 ppm DMSO stock solutions. After drying the leaves were infested with N2 nymphs. The samples were assessed for mortality and growth inhibition in comparison to untreated samples 5 days after infestation.

Test [3] deals with Plutella xylostella. Kind of test: Plutella xylostella (Diamond Back Moth). The note with it: 120 h, application rate of 200 ppm, artificial diet, L2 larvae, 5 days after infestation, read-out: effect in at least one of the two categories (mortality or growth inhibition). The procedure: 24-well microtiter plates with artificial diet were treated with aqueous test solutions prepared from 10,000 ppm DMSO stock solutions by pipetting. After drying, the plates were infested with L2 larvae (10 to 15 per well). The samples were assessed for mortality and growth inhibition in comparison to untreated samples 5 days after infestation.

For test [4], the system named is Spodoptera littoralis. The test is described as follows: Spodoptera littoralis (Egyptian Cotton Leaf Worm), sprayed cotton leaf discs. Particulars: foliar, 72 h, application rate of 200 ppm, L1 larvae, 3 days after infestation. The protocol: Cotton leaf discs were placed onto agar in 24-well microtiter plates and sprayed with aqueous test solutions prepared from 10,000 ppm DMSO stock solutions. After drying the leaf discs were infested with five L1 larvae. The samples were assessed for mortality, anti-feeding effect, and growth inhibition in comparison to untreated samples 3 days after infestation. Control of Spodoptera littoralis by a test sample is given when at least one of the categories mortality, anti-feedant effect, and growth inhibition is higher than the untreated sample.

Test [5] deals with Myzus persicae. Kind of test: Myzus persicae (Green Peach Aphid): Feeding/Contact Activity. The note with it: foliar, 144 h, application rate of 200 ppm, sprayed sunflower leaf discs, aphid population of mixed ages, 6 days after infestation. The protocol: Sunflower leaf discs were placed onto agar in a 24-well microtiter plate and sprayed with aqueous test solutions prepared from 10,000 ppm DMSO stock solutions. After drying, the leaf discs were infested with an aphid population of mixed ages. The samples were assessed for mortality 6 days after infestation.

SMILES strings stand for the structures. Some results are limits rather than exact numbers.

For `CCS(=O)(=O)c1ccc(NOC)nc1-c1nc2cc(C(F)(F)F)n(C3CC3)c(=O)c2n1C` [Compound A46, 5-cyclopropyl-2-[3-ethylsulfonyl-6-(methoxyamino)-2-pyridyl]-3-methyl-6-(trifluoromethyl)imidazo[4,5-c]pyridin-4-one], in test [1], the effect mortality or growth inhibition at 200 ppm was no less than 80%. For the same compound, the percent effect (mortality or growth inhibition) at 200 ppm in test [2] and in test [3] was no less than 80% in each case. This compound returned a percent control (mortality, anti-feeding effect or growth inhibition) at 200 ppm in test [4] of no less than 80%.

In the case of `CCn1c(C(F)(F)F)cc2nc(-c3nc(C(C)=O)ccc3S(=O)(=O)CC)n(C)c2c1=O` [Compound A70, 2-(6-acetyl-3-ethylsulfonyl-2-pyridyl)-5-ethyl-3-methyl-6-(trifluoromethyl)imidazo[4,5-c]pyridin-4-one], in test [3], the percent effect (mortality or growth inhibition) at 200 ppm was no less than 80%.

As for `CCn1c(C(F)(F)F)cc2nc(-c3ncc(N(C)/C=N/OC)cc3S(=O)(=O)CC)n(C)c2c1=O` [Compound A27, N-[6-[5-ethyl-3-methyl-4-oxo-6-(trifluoromethyl)imidazo[4,5-c]pyridin-2-yl]-5-ethylsulfonyl-3-pyridyl]-N′-methoxy-N-methyl-formamidine], in test [3], the percent effect (mortality or growth inhibition) at 200 ppm was no less than 80%. This compound yielded a percent control (mortality, anti-feeding effect or growth inhibition) at 200 ppm in test [4] of no less than 80%.

Regarding `CCn1c(C(F)(F)F)cc2nc(-c3nc(N(C)CC(F)(F)F)ccc3S(=O)(=O)CC)n(C)c2c1=O` [Compound A33], the effect mortality or growth inhibition at 200 ppm in test [1] was no less than 80%. Besides, the percent effect (mortality or growth inhibition) at 200 ppm in test [3] was no less than 80%. The compound further returned a percent control (mortality, anti-feeding effect or growth inhibition) at 200 ppm in test [4] of no less than 80%.

In the case of `CCn1c(C(F)(F)F)cc2nc(-c3ncc(C(=O)NC4(C#N)CC4)cc3S(=O)(=O)CC)n(C)c2c1=O` [Compound A25, N-(1-cyanocyclopropyl)-6-[5-ethyl-3-methyl-4-oxo-6-(trifluoromethyl)imidazo[4,5-c]pyridin-2-yl]-5-ethylsulfonyl-pyridine-3-carboxamide], the percent effect (mortality or growth inhibition) at 200 ppm in test [2] is no less than 80%. The compound also returned a percent control (mortality, anti-feeding effect or growth inhibition) at 200 ppm in test [4] of no less than 80%.

For `CCn1c(C(F)(F)F)cc2nc(-c3ncc(NC4CC4)cc3[S+]([O-])CC)n(C)c2c1=O` (centres unmarked) [Compound A58, 2-[5-(cyclopropylamino)-3-ethylsulfinyl-2-pyridyl]-5-ethyl-3-methyl-6-(trifluoromethyl)imidazo[4,5-c]pyridin-4-one], the effect mortality or growth inhibition at 200 ppm in test [1] was no less than 80%.

As for `CCn1c(C(F)(F)F)cc2nc(-c3ncc(NC4(C#N)CC4)cc3[S+]([O-])CC)n(C)c2c1=O` (centres unmarked) [Compound A57, 1-[[6-[5-ethyl-3-methyl-4-oxo-6-(trifluoromethyl)imidazo[4,5-c]pyridin-2-yl]-5-ethylsulfinyl-3-pyridyl]amino]cyclopropanecarbonitrile], the effect mortality or growth inhibition at 200 ppm in test [1] was no less than 80%. The percent effect (mortality or growth inhibition) at 200 ppm in test [3] is no less than 80%. Further, the percent control (mortality, anti-feeding effect or growth inhibition) at 200 ppm in test [4] is no less than 80%.

One may read the mortality as the share of the test organisms that died. Low readings indicate more survivors, high ones fewer survivors. In the case of `CCn1c(C(F)(F)F)cc2nc(-c3ncc(NS(=O)(=O)C4CC4)cc3S(=O)(=O)CC)n(C)c2c1=O` [Compound A36, N-[6-[5-ethyl-3-methyl-4-oxo-6-(trifluoromethyl)imidazo[4,5-c]pyridin-2-yl]-5-ethylsulfonyl-3-pyridyl]cyclopropanesulfonamide], in test [5], the mortality at 200 ppm is no less than 80%.

As for `CCn1c(C(F)(F)F)cc2nc(-c3nc(Br)c(N)cc3S(=O)(=O)CC)n(C)c2c1=O` [Compound A54, 2-(5-amino-6-bromo-3-ethylsulfonyl-2-pyridyl)-5-ethyl-3-methyl-6-(trifluoromethyl)imidazo[4,5-c]pyridin-4-one], the effect mortality or growth inhibition at 200 ppm in test [1] was no less than 80%. The percent effect (mortality or growth inhibition) at 200 ppm in test [3] was no less than 80%. Besides, the percent control (mortality, anti-feeding effect or growth inhibition) at 200 ppm in test [4] is no less than 80%.

(Values after patent US10730872B2, “Pesticidally active heterocyclic derivatives with sulphur containing sustitutents” (SYNGENTA PARTICIPATIONS AG, priority 2015, dated 2020).)
